In patent publication US7214495B2, “Screening method” (Takeda Pharmaceutical Company Limited, priority 2002, dated 2007):
Read-outs that look alike come from different tables or passages of the source.

Columns and labels:
human-derived GPR40 = molecular target: T1, human-derived GPR40 (Homo sapiens, UniProt O14842); assay: Intracellular calcium change (FLIPR) in CHO-K1 cells transiently expressing GPR40; assay type: cell-based; conditions: added in 10^−5 M to 10^−6 M; no response in vector-only control cells
T1 construct: The DNA fragment encoding human GPR40 was acquired by the following PCR procedures; expressed in transfected cells; host or cells: CHO-K1 (transient, Lipofectamine)
Procedure: The CHO-K1 cell line was cultured in HAM F-12 medium (Invitrogen) containing 10% fetal calf serum (Invitrogen), unless otherwise indicated. One day before transfection, 4.5×10^5 cells per 10 cm^2 were plated, followed by incubation in a CO2 incubator adjusted to a concentration of 5% CO2 at 37° C. for at least 15 hours. Using Lipofectamine reagent (Invitrogen), transfection procedures were carried out by modifications of the method attached to the reagent. When a 6-well plate was used for the incubator, the following procedures were performed. First, 2 tubes each having a 1.5 ml volume were prepared and 100 μl each of Opti-MEM-I medium (Invitrogen) was dispensed in each tube. Next, 1 μg of the expression vector was charged in one tube and in another tube, 6 μl of Lipofectamine reagent was charged, which were mixed together. The mixture was settled for 20 minutes at room temperature. To the solution, 800 μl of Opti-MEM-I medium was added and the resulting solution mixture for transfection was added to CHO-K1 cells, which had been previously washed with Opti-MEM-I medium. Then, the cells were incubated in a CO2 incubator for 6 hours. After the incubation, the cells were rinsed with PBS (Invitrogen), then scraped using 0.05% trypsin-EDTA solution (Invitrogen) and recovered by centrifugal operation. The cells obtained were counted and diluted to 5×10^4 cells per 200 μl of the medium. The dilution was dispensed onto a Black walled 96-well plate (Costar) in 200 μl each per well, followed by incubation overnight in a CO2 incubator. Various test samples were added to the CHO-K1 cells in which the receptor was transiently expressed by the transfection operation described above, whereby changes in the intracellular calcium ion level were determined using FLIPR (Molecular Device). In order to determine the changes in the intracellular calcium ion level on FLIPR, the cells were pre-treated by the following procedures. First, for the purpose of adding a fluorescent dye Fluo-3 AM (DOJIN) to the cells or washing the cells immediately before the FLIPR assay, an assay buffer was prepared. A solution obtained by adding 20 ml of 1M HEPES (pH 7.4) (DOJIN) to 1000 ml of HBSS (Invitrogen) was prepared (hereinafter HBSS/HEPES solution), to which 10 ml of a solution mixture obtained by dissolving 710 mg of Probenecid (Sigma) in 5 ml of 1N NaOH and further adding 5 ml of HBSS/HEPES solution was added. The resulting solution was used as the assay buffer. Next, 50 μg of Fluo-3AM was dissolved in 21 μl of DMSO (DOJIN) and an equal volume of 20% Pulronic acid (Molecular Probes) was added to and mixed with the solution. The mixture was then added to 10.6 ml of the assay buffer supplemented with 105 μl of fetal calf serum to prepare a fluorescent dye solution. The medium for the transfection-treated CHO-K1 cells was removed. Immediately thereafter, the fluorescent dye solution was dispensed in 100 μl each/well and the cells were incubated in a CO2 incubator for an hour so that the fluorescent dye was taken up into the cells. The cells after the incubation was washed with the assay buffer described above and set on FLIPR. A test sample added to the receptor-expressed CHO-K1 cells was prepared using the assay buffer and set on FLIPR at the same time. After various test samples were added thereto.
Following the pre-treatment above, changes in intracellular calcium level after addition of various test samples were measured on FLIPR.

human GPR40 = molecular target: T2, human GPR40 (Homo sapiens, UniProt O14842); assay: EC50 by FLIPR calcium assay in CHO cells stably expressing human GPR40; assay type: cell-based
T2 construct: The resulting fragment (ca. 1 kb) was introduced into vector pAKKO-111, which was used for transfection of CHO cells; expressed in transfected cells
Procedure: (§1) For determination of EC50 values, the CHO cell lines in which human-, mouse- and rat-derived GPR40 was stably expressed were used. Unless otherwise indicated, these CHO cell lines were incubated in α-MEM medium (Invitrogen) supplemented with 10% fetal calf serum (Invitrogen).
(§2) On the day before assay, the cells incubated to almost confluent stage were rinsed with PBS (Invitrogen), then scraped in 0.05% trypsin-EDTA solution (Invitrogen) and recovered by centrifugal operation. The number of the cells obtained was counted and diluted so as to contain 3×10^5 cells/1 mL of the medium. The dilution was dispensed in a Black welled 96-well plate (Coster) in 100 μL/well, followed by incubation overnight in a CO2 incubator. To the thus prepared CHO cells, various test samples were added and the changes in intracellular calcium level in this case were measured using FLIPR (Molecular Device). In order to determine the changes in the intracellular calcium ion level on FLIPR, the cells were pre-treated by the following procedures.
(§3) First, for the purpose of adding a fluorescent dye Fluo-3 AM (DOJIN) to the cells or washing the cells immediately before the FLIPR assay, an assay buffer was prepared. A solution obtained by adding 20 mL of 1M HEPES (pH 7.4) (DOJIN) to 1000 mL of HBSS (Invitrogen) was prepared (hereinafter HBSS/HEPES solution), to which 10 mL of a solution mixture obtained by dissolving 710 mg of Probenecid (Sigma) in 5 mL of 1N NaOH and further adding 5 mL of HBSS/HEPES solution was added. The resulting solution was used as the assay buffer. Next, 50 μg of Fluo-3AM was dissolved in 21 μL of DMSO (Wako) and an equal volume of 20% Pulronic acid (Molecular Probes) was added to and mixed with the solution. The mixture was then added to 10.6 mL of the assay buffer supplemented with 105 μL of fetal calf serum to prepare a fluorescent dye solution. […], the medium for the CHO cells again plated in a Black welled 96-well plate was removed. Immediately thereafter, the fluorescent dye solution was dispensed in 100 μL each/well and the cells were incubated in a CO2 incubator for an hour so that the fluorescent dye was taken up into the cells. The cells after the incubation was washed with the assay buffer described above and set on FLIPR. […] After the pre-treatment above was made, the changes in intracellular calcium level after the addition of various test samples were measured on FLIPR.

Mouse GPR40 = molecular target: T3, Mouse GPR40 (Mus musculus, UniProt Q76JU9); assay: EC50 by FLIPR calcium assay in CHO cells stably expressing mouse GPR40; assay type: cell-based
T3 construct: expressed in transfected cells
Procedure: as §1, §2, §3

Rat GPR40 = molecular target: T4, Rat GPR40 (Rattus norvegicus, UniProt Q8K3T4); assay: EC50 by FLIPR calcium assay in CHO cells stably expressing rat GPR40; assay type: cell-based
T4 construct: expressed in transfected cells
Procedure: as §1, §2, §3

[1] = test system: mouse pancreatic β cell line MIN6; assay: Insulin secretion from MIN6 in KRBH buffer (immunoassay); assay type: cell-based; conditions: 22 mM glucose KRBH, 90 minutes
Procedure: The mouse pancreatic β cell line MIN6 incubated in a flask was scraped in PBS containing 2.5 mM EDTA and plated in a 96-well plate followed by incubation for 2 days. The medium used was the same as in EXAMPLE 24, namely, 4.5 g/l of glucose-containing Dulbecco's Modified Eagle Medium (DMEM, Invitrogen, Inc.) supplemented with 15% fetal calf serum (ThermoTrace, Inc.), 5.5 μM 2-mercaptethanol (Invitrogen, Inc.), 20 mM HEPES pH 7.3, 100 U/ml penicillin and 100 μg/ml streptomycin. The cells were washed twice with modified Krebs-Ringer bicarbonate buffer (KRBH, 116 mM NaCl, 4.7 mM KCl, 1.2 mM KH2PO4, 1.2 mM MgSO4, 2.5 mM CaCl2, 25 mM NaHCO3, 24 mM HEPES, pH 7.3), followed by preincubation at 37° C. in 5% CO2 for 30 minutes. The fatty acid diluted/prepared using the aforesaid KRBH buffer added with 22 mM glucose was added to the cells after the preincubation, followed by incubation under the conditions of 37° C. in 5% CO2 for 90 minutes. After the incubation, the supernatant of the cells was recovered and stored in a frozen state. The insulin content in the supernatant was assayed using an insulin immunoassay kit commercially available (Amersham Pharmacia, Inc.).
Based on the method of EXAMPLE 25, effects of glucose level when added with fatty acids were examined. The level of glucose, which was added to KRBH upon the addition of fatty acids, was varied to 0, 5.5, 11 and 22 mM to study the effects.
The insulin secretion enhancing activity in the m40i103-introduced MIN6 cells using HVJ Envelope VECTOR KIT GenomONE based on the method of EXAMPLE 18 was examined. The insulin secretion enhancing activity by fatty acids was examined according to the method of EXAMPLE 25.
Based on the procedures of EXAMPLE 25, an essential prerequisite of Ca^2+ ions in the extracellular fluid was examined. In preincubation and incubation with a sample, Ca^2+ ions were removed and 0.1 mM EGTA, which was a reagent for chelating Ca^2+ ions, was further added, and then the insulin secretion enhancing activity by fatty acids was examined in this case.
Based on the method of EXAMPLE 25, effects of Ca^2+ channel blocker (Nifedipine) and MAP kinase inhibitor (PD98059) were examined. In preincubation and incubation with a sample, the insulin secretion enhancing activity by fatty acids was examined when Nifedipine (10 μM) or PD98059 (50 μM) was added.
It is known that fatty acids have the property of binding to albumin. Based on the method of EXAMPLE 25, effects were examined when bovine serum albumin (BSA) was present. In preincubation and incubation with a sample, the insulin secretion activity by fatty acids was examined when 0.1% BSA was added to the buffer.

MIN6 cells = assay: FLIPR intracellular calcium assay using MIN6; assay type: cell-based, mouse; conditions: 10 μM fatty acid
Procedure: Mouse pancreatic β cell line MIN6 incubated in a flask was scraped using PBS containing 2.5 mM EDTA and diluted so as to contain 3×10^5 cells/1 mL of the medium. The dilution was dispensed in a Black welled 96-well plate (Coster) in 100 μL/well, followed by incubation in a CO2 incubator for 2 days. The medium used was 4.5 g/l of glucose-containing Dulbecco's Modified Eagle Medium (DMEM, Invitrogen, Inc.) supplemented with 15% fetal calf serum (ThermoTrace, Inc.), 5.5 μM 2-mercaptethanol (Invitrogen, Inc.), 20 mM HEPES pH 7.3, 100 U/ml penicillin and 100 μg/ml streptomycin. To the thus prepared MIN6 cells, various fatty acids (10 μM) were added and the changes in intracellular calcium level in this case were measured using FLIPR (Molecular Device). The changes in the intracellular calcium ion level on FLIPR were assayed in accordance with the procedures described in EXAMPLE 24.

[2] = intracellular calcium, FLIPR, stable CHO line
[3] = intracellular calcium, FLIPR, stable CHO line, read-out: EC50 Rat GPR40
[4] = intracellular calcium, FLIPR, stable CHO line, read-out: EC50 Human GPR40
[5] = intracellular calcium, FLIPR, stable CHO line, read-out: EC50 Mouse GPR40

T3 sequence (Q76JU9 whole entry): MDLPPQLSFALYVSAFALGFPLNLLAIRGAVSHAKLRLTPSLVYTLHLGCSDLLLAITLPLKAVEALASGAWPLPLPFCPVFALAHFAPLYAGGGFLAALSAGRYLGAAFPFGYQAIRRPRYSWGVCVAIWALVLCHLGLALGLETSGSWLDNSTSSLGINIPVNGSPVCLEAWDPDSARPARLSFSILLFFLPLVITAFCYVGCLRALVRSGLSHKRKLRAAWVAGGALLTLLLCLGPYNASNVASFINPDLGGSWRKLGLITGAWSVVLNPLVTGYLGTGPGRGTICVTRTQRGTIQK
T2 sequence (O14842 whole entry, the tested form may be a part): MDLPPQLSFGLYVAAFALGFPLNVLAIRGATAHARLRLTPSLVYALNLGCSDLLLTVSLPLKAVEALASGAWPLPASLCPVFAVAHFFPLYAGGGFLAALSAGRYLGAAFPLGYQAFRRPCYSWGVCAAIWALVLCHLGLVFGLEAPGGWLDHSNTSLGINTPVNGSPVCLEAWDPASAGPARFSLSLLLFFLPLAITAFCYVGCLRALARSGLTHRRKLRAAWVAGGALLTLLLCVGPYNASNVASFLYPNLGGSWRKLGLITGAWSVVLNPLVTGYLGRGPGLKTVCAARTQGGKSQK
T1 sequence (O14842 whole entry, the tested form may be a part): as above
T4 sequence (Q8K3T4 whole entry): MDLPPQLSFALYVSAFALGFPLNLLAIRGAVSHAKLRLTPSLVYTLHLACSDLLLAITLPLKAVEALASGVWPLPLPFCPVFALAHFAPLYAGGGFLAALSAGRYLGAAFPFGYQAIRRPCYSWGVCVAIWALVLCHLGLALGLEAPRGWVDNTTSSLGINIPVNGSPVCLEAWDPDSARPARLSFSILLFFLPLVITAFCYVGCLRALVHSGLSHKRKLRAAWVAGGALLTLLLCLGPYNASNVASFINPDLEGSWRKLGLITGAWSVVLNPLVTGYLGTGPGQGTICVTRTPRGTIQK

Row | EC50 (Rat GPR40; [3]) [µM] | EC50 (human GPR40; [4]) [µM] | EC50 (Mouse GPR40; [5]) [µM] | Compound | response (increase in intracellular calcium level) of GPR40-expressing CHO-K1 cells (human-derived GPR40) | further results
1 | 13 ± 3.3 | 5.7 ± 1.4 | 5.6 ± 1.6 | CCCCCCCCCCCC(=O)O [Lauric acid (C12), Lauric acid] | specifically responsive | 
2 | > 300 | > 300 | > 300 | CCCCCCCCCCCCCCCCCC(=O)O [Stearic acid (C18), Stearic acid] |  | 
3 |  |  | 6 ± 0.8 | CCCCCCCCCCCCCC(=O)O [Myristic acid (C14), Myristic acid] |  | 
4 | 11 ± 1.5 | 4.7 ± 0.4 | 6.5 ± 1.5 | CCCCCCCC/C=C/CCCCCCCC(=O)O [Elaidic acid (C18:1), Elaidic acid] |  | 
5 | > 100 | 43 ± 2.2 | > 100 | CCCCCCCCCC(=O)O [Capric acid (C10), Capric acid] |  | 
6 | 9.8 ± 0.6 | 2.3 ± 0.4 | 4.9 ± 0.8 | CC/C=C\C/C=C\C/C=C\C/C=C\C/C=C\CCCC(=O)O [Eicosapentaenoic acid (C20:5), Eicosapentaenoic acid] |  | 

The next lines start with the compound.

Row | Compound | EC50 (Rat GPR40; [3]) [µM] | EC50 (human GPR40; [4]) [µM] | EC50 (Mouse GPR40; [5]) [µM] | response (increase in intracellular calcium level) of GPR40-expressing CHO-K1 cells (human-derived GPR40) | further results
7 | CCCCCC#CCC#CCC#CCC#CCCCC(=O)O [5.8.11.14-eicosatetraynoic acid] |  |  |  | specifically responsive | 
8 | CC(=O)O [Acetic acid (C2), Acetic acid] |  |  |  |  | EC50 Human GPR40 (human GPR40; [2]): inactive; EC50 Mouse GPR40 (Mouse GPR40; [2]): inactive; EC50 Rat GPR40 (Rat GPR40; [2]): inactive
9 | CCCCCC(=O)O [Caproic acid (C6), Caproic acid] | > 300 |  |  |  | EC50 Human GPR40 (human GPR40; [2]): inactive; EC50 Mouse GPR40 (Mouse GPR40; [2]): inactive
10 | eicosadienoic acid |  |  |  | specifically responsive | 
11 | eicosatrienoic acid |  |  |  | specifically responsive | 
12 | CCCCCCCC(=O)O [Caprylic acid (C8), Caprylic acid] | > 300 | > 300 |  |  | EC50 Mouse GPR40 (Mouse GPR40; [2]): inactive
13 | CCCCCCCCC#CCC#CCC#CCCCC(=O)O [5.8.11-eicosatriynoic acid] |  |  |  | specifically responsive | 
14 | CCCC(=O)O [Butyric acid (C4), Butyric acid] |  |  |  |  | insulin secretion enhancing activity [1]: did not show any significant insulin secretion enhancing activity; EC50 Human GPR40 (human GPR40; [2]): inactive; EC50 Mouse GPR40 (Mouse GPR40; [2]): inactive; EC50 Rat GPR40 (Rat GPR40; [2]): inactive; intracellular Ca^2+ level in MIN6 (MIN6 cells): not observed
15 | CC(C)=CCCC(C)=CCCC(C)=CC(=O)O [farnesoic acid] |  |  |  | specifically responsive | 
16 | CC/C=C\C/C=C\C/C=C\CCCCCCCC(=O)O [α-Linolenic acid (C18:3), α-Linolenic acid] |  |  |  |  | insulin secretion enhancing activity [1]: significantly noted; EC50 (human GPR40): 2 ± 0.3 µM; EC50 (Mouse GPR40): 3.6 ± 0.3 µM; EC50 (Rat GPR40): 4 ± 0.7 µM
17 | CCCCC/C=C\C/C=C\C/C=C\C/C=C\CCCCCC(=O)O [adrenic acid] |  |  |  | specifically responsive | 
18 | docosatrienoic acid |  |  |  | specifically responsive | 
